{"source": "patent US6521594B1", "about": "“Method and composition for treating thrombosis” (La Jolla Cancer Research Foundation, priority 1990, dated 2003)", "key": {"platelets [1]": {"tested_on": "platelets", "test": "Ex vivo platelet aggregation in dogs (Example XII.H)", "set-up": "species or system dog; dose or concentration left out as unconfirmed", "experimental": "More importantly, several peptides in FIG. 23 were administered to dogs (according to the method of Example VII) at doses capable of inhibiting ex vivo platelet aggregation by >95%.\nThe bleeding time indicated in the parentheses was measured at a five-fold higher concentration of peptide. […]"}, "coronary thrombosis": {"tested_on": "coronary thrombosis", "test": "Electrically induced canine coronary thrombosis (time to full occlusion)", "type": "in vivo, dog", "experimental": "Male mongrel dogs weighing 14 to 20 kg were selected based on proper aggregation of their platelets in response to arachidonic acid, collagen, and adenosine disphosphate (ADP) and based on similar weights and hemodynamic properties.\nBefore surgery, the animals were anesthetized with sodium pentobarbital (30 mg/kg, i.v.) and then intubated and ventilated on room air with positive pressure using a respirator (Harvard Apparatus, S. Natick, Mass.) at a volume of 30 ml/kg and a frequency of 12 breaths/min. Surgery, performed under aseptic conditions, was begun with the placement of cannulae into the left carotid artery and jugular vein for monitoring arterial blood pressure (Statham P23 pressure transducer, Gould, Inc., Cardiovascular Products, Oxnard, Calif.) and administering intravenous fluids.\nThe heart was exposed via a left thoracotomy through the 5th intercostal space. A 2-cm segment of the left circumflex coronary artery (LCCA) was isolated from surrounding tissue by blunt dissection. […] The intra-coronary electrode was constructed by attaching a 25-gauge hypodermic needle tip to a 30-gauge Teflon-insulated silver-coated copper wire. The mechanical occluder was constructed of stainless steel in a C shape with a Teflon screw (2 mm diameter) on top. It was adjusted to control vessel circumference and decrease the reactive hyperemic flow due to a 10-sec (full) occlusion by 50-70% without affecting basal coronary blood flow (FIG. 1). A monopolar epicardial electrode was sutured to the surface of the ventricle in the region of LCCA distribution to monitor ischemic changes in the electrocardiogram (ECG). The left atrium was cannulated with polythylene tubing for administration of the peptide. Continuous recordings of blood pressure, limb lead II ECG, epicardial electrogram, and mean and phasic LCCA blood flow were obtained on a Model 7 polygraph (Grass Instrument Co., Quincy, Mass.).\nOne hour after the completion of surgery, a 100 micro-amp continuous anodal direct current delivered from a 9 volt nickel-cadmium battery was applied to the intimal surface of the LCCA. The anode of the battery was in series with a 250,000 ohm potentiometer and the intraluminal coronary artery electrode. The electric circuit was completed by placing the cathode in a subcutaneous site. Electrical stimulation was applied for three hours. At the conclusion of each experiment, the heart was fibrillated electrically and quickly removed, and the LCCA was dissected free as far as possible to verify the position of the implanted anodal electrode.\n(§1) Animals were randomly assigned to two treatment groups: vehicle control (i.e., normal saline) or RGD peptides at various concentrations. Peptides were administered intra-atrially in both bolus and continuous injections. Each bolus injection consisted of 0.5 to 10 mg/kg and was administered 15 minutes before application of the current. A continuous infusion of the same peptide was then started immediately after completion of this initial injection. Animals received a 25 μg/kg/min to 200 μg/kg/min infusion. The anti-thrombotic effects of the peptides were monitored until 30 minutes after the occurrence of a persistent, occlusive thrombus or five hours after the initiation of electrical stimulation (whichever resulted first). If an occlusive thrombus had not developed within four hours after the initiation of current, the peptide infusion was stopped.\nCoronary thrombosis was quantified as the time to full occlusion. The effects of the various peptide treatments on coronary thrombosis is illustrated in FIG. 4."}, "[2]": {"tested_on": "prosthetic arterial graft thrombosis", "test": "Platelet and fibrinogen uptake by Gore-Tex arterial grafts in ex vivo shunt", "set-up": "species or system baboon", "experimental": "Adult male baboons (weighing 16 to 25 kg) were used in these studies. These were sedated with ketamine hydrochloride (200 to 250 mg intramuscular injection) and maintained under anesthesia with sodium pentobarbital (50 to 75 mg administered intravenously as necessary).\nTwenty-four hours before the ex vivo shunt was established, platelets were isolated from 500 ml of blood from the test animal and labelled with ca. 500 microcuries of indium-111 oxine (Medi+Physics, Emeryville, Calif.), which irreversibly and specifically binds to platelets with an efficiency of 50%. Immediately after labelling, these platelets were then injected back into the animal and allowed to circulate for 24 hours. Immediately before the start of the study, fibrinogen that had been isolated from the animal and labelled with iodine-131 (DuPont Nuclear, Boston, Mass.) was also injected back into the animal. Also at this time, baseline determinations of the clotting and template bleeding times were made, and blood samples were drawn for hematology studies.\nTo establish the ex vivo shunt, the femoral artery and vein were percutaneously cannulated with introducer catheters (KMA Inc., Mansfield, Mass.). The catheters were then connected to medical-grade, heparin-coated silastic tubing (2.59 mm internal diameter, (Extracorporeal Medical Specialties, Inc., King of Prussia, Pa.). […] Finally, a 5 cm-long test segment of a 4 mm (internal diameter) vascular graft was inserted at the apex of the circuit. The graft used in these studies was Gore-tex (expanded polytetrafluoroethylene, (W. L. Gore and Associates, Inc., Flagstaff, Ariz.). An electromagnetic flow probe was then inserted into the tubing circuit to measure blood flow, which was maintained at 100 ml/min. by varying the resistance imported by a partially occluding screw clamp that was distal to the probe. Finally, a 5 cm-long test segment of a 4 mm (internal diameter) vascular graft was inserted at the apex of the circuit. The graft used in these studies was Gore-tex (expanded polytetrafluoroethylene, W. L. Gore and Associates, Inc., Flagstaff, Ariz.).\nPlatelet deposition onto the grafts was monitored by dynamic scanning with a gamma camera (Sigma 400, Ohio Nuclear, Inc., Sohon, Ohio), which detects the gamma radiation emitted by the ^111indium-labelled platelets. Once the circuit was in place, the animal was placed under this camera, and blood flow was initiated. Scans were then taken at the rate of one frame per two minutes for two hours. The data from these scans were collected on a dedicated Digital MDA computer (Maynard, Mass.). […]"}, "platelets [3]": {"tested_on": "platelets", "test": "Ex vivo platelet aggregation in the canine coronary thrombosis study", "set-up": "species or system dog", "experimental": "For all ex vivo studies (see FIG. 3), control aggregation values were standardized to the percentages of light transmission observed in PRP and PPP samples (0% and 100%, respectively).\nas §1\n(§2) Platelet counts and ex vivo aggregation studies were performed one hour before and 1, 3, and 5 hours after application of anodal direct current.\nPlatelet aggregation was also determined ex vivo at one, three, and five hours after current application. For these studies, arachidonic acid, or collagen was again used to stimulate the platelets."}, "canine platelets": {"tested_on": "canine platelets", "test": "Canine platelet aggregation in vitro (ADP, arachidonic acid, collagen)", "type": "cell-based, dog", "conditions": "10 μm ADP, […] arachidonic acid or 9.6 micrograms/ml collagen; canine PRP; read-out: IC50 against canine platelet aggregation", "experimental": "as §2\nEpinephrine (550 nM) was used to prime platelets before stimulation with arachidonic acid. Peptides were added in 1% dilutions to the PRP solutions."}, "platelets [4]": {"tested_on": "platelets", "test": "Ex vivo platelet aggregation on PRP of baboon", "type": "in vivo", "conditions": "animal 2; ADP 10 μm; 0, 1 and 2 hours", "experimental": "At one- and two-hour time points, template bleeding times were measured, and blood samples were drawn to assess the hematology aggregation studies. Platelet aggregation studies were performed as described in Example V using ADP as the stimulus.\nIn addition, platelet aggregation studies were conducted on PRP derived from the second animal. Whole blood was drawn at three time points (0, 1 and 2 hours) of both control and experimental shunts."}, "[5]": {"molecular_target": "T1, vitronectin receptor (Vn-R) (Homo sapiens, UniProt P05106+P06756)", "T1 construct": "from tissue; host or cells: human placenta", "T1 sequence (P06756 31-889 limits assumed)": "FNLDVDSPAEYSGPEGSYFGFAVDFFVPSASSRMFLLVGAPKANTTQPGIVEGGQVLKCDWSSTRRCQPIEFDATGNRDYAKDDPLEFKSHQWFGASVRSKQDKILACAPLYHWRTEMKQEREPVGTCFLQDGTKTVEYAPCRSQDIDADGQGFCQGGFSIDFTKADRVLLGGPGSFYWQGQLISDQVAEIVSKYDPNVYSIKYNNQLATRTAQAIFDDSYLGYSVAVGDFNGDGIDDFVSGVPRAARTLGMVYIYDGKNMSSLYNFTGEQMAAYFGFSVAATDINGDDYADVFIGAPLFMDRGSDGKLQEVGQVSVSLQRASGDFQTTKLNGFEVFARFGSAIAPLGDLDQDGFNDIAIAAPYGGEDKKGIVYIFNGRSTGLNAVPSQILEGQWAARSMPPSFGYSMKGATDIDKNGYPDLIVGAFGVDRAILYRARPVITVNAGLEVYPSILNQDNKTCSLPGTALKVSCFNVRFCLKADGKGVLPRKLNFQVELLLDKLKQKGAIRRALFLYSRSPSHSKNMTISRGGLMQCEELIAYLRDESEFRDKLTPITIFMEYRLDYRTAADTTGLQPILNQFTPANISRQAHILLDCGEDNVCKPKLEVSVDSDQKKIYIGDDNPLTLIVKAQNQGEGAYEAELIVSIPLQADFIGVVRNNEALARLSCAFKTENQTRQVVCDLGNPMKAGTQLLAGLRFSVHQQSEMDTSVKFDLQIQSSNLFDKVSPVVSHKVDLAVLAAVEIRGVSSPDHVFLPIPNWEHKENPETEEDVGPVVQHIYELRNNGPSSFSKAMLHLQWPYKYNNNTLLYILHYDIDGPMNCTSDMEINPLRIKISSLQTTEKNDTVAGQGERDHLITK", "T1 sequence (P06756 891-1048 limits assumed)": "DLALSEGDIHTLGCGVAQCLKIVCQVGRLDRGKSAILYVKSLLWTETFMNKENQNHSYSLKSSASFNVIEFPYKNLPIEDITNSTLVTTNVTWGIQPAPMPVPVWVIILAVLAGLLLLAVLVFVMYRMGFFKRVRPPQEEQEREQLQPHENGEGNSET", "T1 sequence (P05106 27-788)": "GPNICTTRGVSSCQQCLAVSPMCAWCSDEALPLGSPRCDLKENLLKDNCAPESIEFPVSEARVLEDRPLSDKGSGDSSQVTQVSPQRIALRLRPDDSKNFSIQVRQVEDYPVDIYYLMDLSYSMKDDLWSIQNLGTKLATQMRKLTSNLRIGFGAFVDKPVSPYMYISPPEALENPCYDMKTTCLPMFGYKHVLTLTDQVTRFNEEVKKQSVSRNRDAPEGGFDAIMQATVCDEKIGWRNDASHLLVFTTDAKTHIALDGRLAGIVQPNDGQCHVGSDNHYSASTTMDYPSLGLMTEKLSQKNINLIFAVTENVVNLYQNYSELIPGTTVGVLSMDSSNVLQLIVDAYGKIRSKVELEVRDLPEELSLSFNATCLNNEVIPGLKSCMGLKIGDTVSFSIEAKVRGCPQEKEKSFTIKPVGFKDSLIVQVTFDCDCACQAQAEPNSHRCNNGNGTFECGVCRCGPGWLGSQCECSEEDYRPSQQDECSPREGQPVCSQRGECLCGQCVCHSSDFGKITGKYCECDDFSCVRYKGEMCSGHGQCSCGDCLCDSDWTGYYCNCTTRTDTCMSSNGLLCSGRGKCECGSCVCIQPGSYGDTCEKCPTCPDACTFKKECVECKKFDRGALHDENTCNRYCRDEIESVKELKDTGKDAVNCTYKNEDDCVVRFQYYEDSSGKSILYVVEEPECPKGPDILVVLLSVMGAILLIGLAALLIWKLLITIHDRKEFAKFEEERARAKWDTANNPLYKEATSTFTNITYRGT", "test": "Vitronectin receptor binding (ELISA or liposome attachment assay)", "conditions": "read-out: VnR Binding (IC50), purified receptor", "method": "Receptor and ligand purifications were performed according to the methods in this Example or those in Example XI.C. Receptors were purified according to the procedures of Pytela et al. (Methods Enzymol. 144:475 (1987)), incorporated herein by reference. […] Except where stated, all procedures were carried out at 4° C. The peptide column was washed with three volumes of Tris-buffered saline (TBS) containing 1 mM Ca^2+ and 25 mM OG and then with TBS containing 1 mM Ca^2+ and 25 mM octyl thioglucoside (OTG) at room temperature. […] Finally, Ca^2+ and Mg^+2 were added to eluted fractions to achieve final concentrations of 1 mM for both ions.\nMaxisorp microtiter plates were coated with 2 μg/ml human vitronectin dissolved in PBS (50 ml/well) and stored overnight at 4° C. The plates were washed two times with PBS-0.05% Tween-20 (wash buffer) and blocked by incubating with about 150 μl/well of assay buffer (1%, BSA (RIA grade or better) in 50 mM Tris-HCl, 100 mM NaCl, 1 mM MgCl2, CaCl2, MnCl2 pH 7.4) for 60 minutes. […] The plates were read at 492-405 nm and the data analyzed by four-parameters fit. […]\nIn parallel studies with the platelet aggregation experiments (described in Example V), the apparent affinities of peptides for GP IIb/IIIa, fibronectin and vitronectin receptors were determined. […]\nThose for VnR and GP IIb/IIIa were determined either by ELISA or liposome attachment assay (Example IV)."}, "αIIbβ3": {"molecular_target": "T2, αIIbβ3 (Homo sapiens, UniProt P05106+P08514)", "T2 construct": "Platelet glycoprotein IIb/IIIa was purified from outdated human platelets; from tissue; host or cells: outdated human platelets", "T2 sequence (P08514 32-887 limits assumed)": "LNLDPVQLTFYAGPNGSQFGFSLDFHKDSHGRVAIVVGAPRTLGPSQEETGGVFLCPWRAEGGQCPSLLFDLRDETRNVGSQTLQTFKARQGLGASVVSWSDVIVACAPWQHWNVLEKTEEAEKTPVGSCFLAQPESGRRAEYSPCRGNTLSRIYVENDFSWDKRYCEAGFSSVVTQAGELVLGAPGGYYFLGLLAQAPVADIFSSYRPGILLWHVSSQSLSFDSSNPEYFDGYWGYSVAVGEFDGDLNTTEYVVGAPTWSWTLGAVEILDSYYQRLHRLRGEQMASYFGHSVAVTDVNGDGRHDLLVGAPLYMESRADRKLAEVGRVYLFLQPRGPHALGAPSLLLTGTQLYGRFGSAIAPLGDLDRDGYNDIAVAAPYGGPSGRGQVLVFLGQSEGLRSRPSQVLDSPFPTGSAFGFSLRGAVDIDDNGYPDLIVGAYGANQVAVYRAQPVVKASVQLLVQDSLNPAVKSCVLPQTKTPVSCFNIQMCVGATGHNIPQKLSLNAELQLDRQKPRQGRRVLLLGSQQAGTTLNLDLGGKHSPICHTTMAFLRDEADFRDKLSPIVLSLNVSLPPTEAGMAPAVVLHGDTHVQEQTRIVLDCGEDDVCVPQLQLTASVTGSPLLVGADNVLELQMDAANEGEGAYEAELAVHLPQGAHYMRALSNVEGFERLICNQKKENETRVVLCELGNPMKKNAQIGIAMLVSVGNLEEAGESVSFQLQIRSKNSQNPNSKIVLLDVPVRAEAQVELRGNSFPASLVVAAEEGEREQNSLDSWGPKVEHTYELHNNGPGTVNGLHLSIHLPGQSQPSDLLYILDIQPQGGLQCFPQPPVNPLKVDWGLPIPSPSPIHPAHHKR", "T2 sequence (P08514 891-1039 partner limits assumed)": "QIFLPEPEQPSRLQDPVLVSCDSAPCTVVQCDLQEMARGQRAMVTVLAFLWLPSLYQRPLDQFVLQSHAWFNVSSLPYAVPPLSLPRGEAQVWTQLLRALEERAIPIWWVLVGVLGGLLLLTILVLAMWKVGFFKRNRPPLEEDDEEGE", "T2 sequence (P05106 27-788)": "as the sequence (P05106 27-788) above", "test": "αIIbβ3 (IIb/IIIa-fibrinogen) ELISA of Example XII", "type": "binding", "conditions": "comparator analogue 1", "experimental": "Microtiter plates were coated overnight at room temperature with 110 μL of human fibrinogen (at 10 μg/mL) diluted in TBS. The plates were then washed three times with 200 μL per well of TBS+0.05% Tween-20. Fifty (50) μL of purified IIb/IIIa diluted in TBS with 20 mM octylglucoside, 2 mM MgCl2 and 2 mM CaCl2 were added to the wells. Fifty (50) μLs of peptide in the same buffer were then added in 10-fold serial dilutions and the plates were incubated for three hours at room temperature. The plates were washed three times with TBS-Tween and 100 μL of rabbit anti-IIb/IIIa were added to each well. After a two hour room temperature incubation, the plates were washed and the remaining steps done as described for the FnR ELISA.\nThe peptides described in this Example were synthesized according to the methods of Examples I and XI. Selectivity and potency were measured according to the methods of Examples II through XI. The peptide identification numbers used in this Example are consistent and relevant to this Example only. Some of the peptides are identified by other nomenclature elsewhere in this document."}, "platelets [6]": {"molecular_target": "T3, platelets (Homo sapiens, UniProt P05106+P08514)", "T3 sequence (P08514 32-1039)": "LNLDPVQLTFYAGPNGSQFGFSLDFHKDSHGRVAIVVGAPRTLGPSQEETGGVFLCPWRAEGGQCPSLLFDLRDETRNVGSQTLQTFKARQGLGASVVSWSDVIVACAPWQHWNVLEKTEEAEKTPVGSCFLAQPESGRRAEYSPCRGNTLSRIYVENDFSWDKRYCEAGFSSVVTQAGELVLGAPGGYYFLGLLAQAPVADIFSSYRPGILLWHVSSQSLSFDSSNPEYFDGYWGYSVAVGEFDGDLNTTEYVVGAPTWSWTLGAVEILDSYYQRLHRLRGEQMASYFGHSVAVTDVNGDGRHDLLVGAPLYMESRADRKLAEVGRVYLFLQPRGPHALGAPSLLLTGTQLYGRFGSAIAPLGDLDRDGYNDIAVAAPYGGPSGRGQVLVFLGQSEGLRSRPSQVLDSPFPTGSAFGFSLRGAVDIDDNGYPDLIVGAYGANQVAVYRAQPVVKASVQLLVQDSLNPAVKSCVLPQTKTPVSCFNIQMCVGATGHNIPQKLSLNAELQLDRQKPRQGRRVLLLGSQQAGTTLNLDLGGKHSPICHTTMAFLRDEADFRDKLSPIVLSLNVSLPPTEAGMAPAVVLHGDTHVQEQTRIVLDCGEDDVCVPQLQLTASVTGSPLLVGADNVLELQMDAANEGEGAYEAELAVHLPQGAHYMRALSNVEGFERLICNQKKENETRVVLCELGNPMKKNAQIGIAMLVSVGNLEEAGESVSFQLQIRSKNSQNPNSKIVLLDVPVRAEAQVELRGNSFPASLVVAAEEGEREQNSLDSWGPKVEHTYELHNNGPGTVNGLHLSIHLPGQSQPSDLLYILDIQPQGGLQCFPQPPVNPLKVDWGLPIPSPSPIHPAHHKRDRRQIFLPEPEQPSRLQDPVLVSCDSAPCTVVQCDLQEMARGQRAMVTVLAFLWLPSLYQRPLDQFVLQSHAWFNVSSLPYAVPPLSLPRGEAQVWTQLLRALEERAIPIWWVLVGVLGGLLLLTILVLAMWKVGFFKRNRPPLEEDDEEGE", "T3 sequence (P05106 27-788)": "as the sequence (P05106 27-788) above", "test": "Human platelet aggregation in PRP (modified assay, Table II)", "type": "cell-based", "conditions": "citrate, collagen, U46619 or ADP", "method": "In an independent study, a slightly modified aggregation assay was used. Platelet aggregation assays were performed in human platelet rich plasma (PRP). […] The blood was centrifuged at 160×g for 10 minutes at 22° C. and allowed to stand for 5 minutes after which the PRP was decanted. Platelet poor plasma (PPP) was isolated from the remaining blood after centrifugation at 2000×g for 25 minutes. The platelet count of the PRP was diluted to about 300,000 platelets per microliter with PPP.\nA 225 μl aliquot of PRP plus 25 μl of either a dilution of the test inhibitor sample or a control (PBS) was incubated for 5 minutes in a Chrono-log Whole Blood Aggregometer at 37° C."}, "platelets [7]": {"molecular_target": "T3, platelets", "type": "cell-based", "conditions": "ADP 10 μm; citrated PRP; read-out: ADP-Stimulated Aggregation (IC50)", "method": "Briefly, the change in light transmission was measured through a stirred suspension of platelets in an aggregometer (Model 400 VS, Chrono-Log, Havertown, Pa., USA). […] In studies using thrombin, the PRP was gel-filtered on Sepharose 2B in divalent ion-free Tyrode's solution containing 2% BSA. For all studies, the reference standard was platelet-poor plasma, which was obtained by centrifuging PRP at 1000×g for 5 min.\nAll aggregation studies were performed at 37° C. with a constantly stirred suspension of 3×10^8 platelets/ml. (Platelet count was determined with the aid of a hemacytometer.) Peptides and stimulants were added to these suspensions in 1% dilutions. The PRP and gel-filtered platelets were used within three hours from the time of blood collection.\nPeptide anti-aggregation potencies were determined from dose-responsive curves for the inhibition of the maximum aggregation responses stimulated by physiologic doses of ADP (10 μm) and thrombin (2 U/ml)."}, "[8]": {"conditions": "animal 1, two bolus IV injections of 10 mg/kg"}, "[9]": {"conditions": "animal 2, 10 mg/kg bolus IV + 10 mg/kg/hr infusion for 2 h"}, "[10]": {"conditions": "10 mg/kg injection, 1, 3 and 5 h"}}, "note": "Like-named read-outs stand apart in the source and are kept apart here.", "data": [{"substance": "Ac-CNPRGD(Y-OMe)RCNH2 [8X]", "values": [{"measurement": "inhibition of ex vivo platelet aggregation", "setting": "platelets [1]", "value": "> 95", "unit": "%"}]}, {"substance": "G(Pen)GHRGDLRCA [2G]", "values": [{"measurement": "coronary thrombosis: time to full occlusion", "setting": "coronary thrombosis; 10 mg/kg", "value": "did not significantly influence"}, {"measurement": "reduction in 111In-platelet uptake by graft", "setting": "[2]; [8]", "value": 90, "unit": "%"}, {"measurement": "reduction in 131I-fibrinogen uptake by graft", "setting": "[2]; [8]", "value": 79, "unit": "%"}, {"measurement": "reduction in labelled fibrinogen uptake by graft", "setting": "[2]; [9]", "value": 78, "unit": "%"}, {"measurement": "reduction in labelled platelet uptake by graft", "setting": "[2]; [9]", "value": 84, "unit": "%"}, {"measurement": "effect on ADP-stimulated ex vivo aggregation", "setting": "platelets [3]; [10]", "value": "substantially inhibited"}, {"measurement": "inhibition of AA-stimulated ex vivo aggregation relative to control", "setting": "platelets [3]; [10]", "value": "43-70%"}, {"measurement": "inhibition of collagen-stimulated ex vivo aggregation relative to control", "setting": "platelets [3]; [10]", "value": "12-50%"}, {"measurement": "IC50", "setting": "canine platelets", "value": "15000 to 30000", "unit": "nM"}, {"measurement": "ex vivo platelet aggregation response", "setting": "platelets [4]", "value": "completely unresponsive to the peptide treatment"}]}, {"substance": "G(Pen)IARGDWNCA", "values": [{"measurement": "IC50", "setting": "[5]", "value": 40, "unit": "nM"}]}, {"substance": "G(dPen)GHRGDLRCA", "values": [{"measurement": "fold more potent than analogue 1 in the αIIbβ3 assay", "setting": "αIIbβ3", "value": "approximately 2 fold"}]}, {"substance": "R(Pen)GHRGDWRCR [4Q]", "values": [{"measurement": "coronary thrombosis: time to full occlusion", "setting": "coronary thrombosis; 5 mg/kg", "value": "significantly prolonged the time to occlusion"}, {"measurement": "thrombus formation in animals with platelet levels one-third of normal", "setting": "coronary thrombosis; 5 mg/kg", "value": "able to prevent thrombus formation"}, {"measurement": "coronary thrombosis: time to full occlusion", "setting": "coronary thrombosis; 10 mg/kg", "value": "completely prevented occlusion"}, {"measurement": "IC50", "setting": "platelets [6]", "value": 3300, "unit": "nM"}, {"measurement": "IC50", "setting": "platelets [7]", "value": 1300, "unit": "nM"}, {"measurement": "ex vivo platelet activation by collagen", "setting": "platelets [3]; 5 mg/kg injection", "value": "near-maximal inhibition"}, {"measurement": "ex vivo platelet response to ADP and AA", "setting": "platelets [3]; 5 mg/kg injection, all three time points", "value": "completely unresponsive"}, {"measurement": "ex vivo platelet aggregation by ADP, AA and collagen", "setting": "platelets [3]; 10 mg/kg injection", "value": "prevented platelet aggregation by all three stimuli at one- and three-hour time points"}]}]}
